Results from patent US20220396586A1, “THIAZOLE CARBOXAMIDE COMPOUNDS AND USE THEREOF FOR THE TREATMENT OF MYCOBACTERIAL INFECTIONS” (THE GLOBAL ALLIANCE FOR TB DRUG DEVELOPMENT, INC., priority 2019, published 2022).
Converted amounts (≈) assume the structure as drawn.

Columns and labels:
M. ab_ATCC = test: MIC against Mycobacterium abscessus (M. ab_ATCC, MHII), procedure of Franz 2017; assay type: cell-based; details: Mycobacteroides abscessus, Mycobacterium abscessus ATCC
Text: The procedure described in Franz 2017 was used to generate the data shown in column 2 of Table 1.

M. tb H37Rv = test: MIC determination against M. tb H37Rv (MIC-MABA); assay type: cell-based, Mycobacterium tuberculosis; details: Mycobacterium tuberculosis, H37RV, 240 h, read-out: M. tb H37Rv: MIC-MABA, M. tb H37Rv; 7H9 broth; 10 days exposure; MIC = lowest concentration inhibiting fluorescence by 90%

## C[Si]1(C)CCC(NC(=O)c2cc3sc(C4CC4)nc3[nH]2)C1 (stereo not drawn) [MPL-297, 2-cyclopropyl-N-(1,1-dimethylsilolan-3-yl)-4H-pyrrolo[2,3-d]thiazole-5-carboxamide]
M. ab_ATCC
  MIC: > 64 µg/mL
M. tb H37Rv
  MIC: 0.982 µg/mL (≈ 3.07 µM)

## C[Si]1(C)CCCC(NC(=O)c2cc3sc(C4CC4)nc3[nH]2)CCC1 [MPL-304, 2-cyclopropyl-N-(1,1-dimethylsilocan-5-yl) -4H-pyrrolo[2,3-d]thiazole-5-carboxamide]
M. ab_ATCC
  MIC: > 64 µg/mL
M. tb H37Rv
  MIC: 0.291 µg/mL (≈ 0.805 µM)

## C[Si]1(C)CCC(NC(=O)c2cc3sc(-c4ccccc4)nc3[nH]2)CC1 [MPL-308, N-(1,1-dimethylsilinan-4-yl)-2-phenyl-4H-pyrrolo[2,3-d]thiazole-5-carboxamide]
M. ab_ATCC
  MIC: > 64 µg/mL
M. tb H37Rv
  MIC: 0.007 µg/mL (≈ 0.0189 µM)

## COc1nc2[nH]c(C(=O)NC3CC[Si](C)(C)CC3)cc2s1 [MPL-309, N-(1,1-dimethylsilinan-4-yl)-2-methoxy-4H-pyrrolo[2,3-d]thiazole-5-carboxamide]
M. ab_ATCC
  MIC: 0.625 µg/mL (≈ 1.93 µM)
M. tb H37Rv
  MIC: 0.088 µg/mL (≈ 0.272 µM)

## C[Si]1(C)CCC(NC(=O)c2[nH]c3sc(C4CC4)nc3c2Br)CC1 [MPL-311, 6-bromo-2-cyclopropyl-N-(1,1-dimethylsilinan-4-yl)-4H-pyrrolo[3,2-d]thiazole-5-carboxamide]
M. ab_ATCC
  MIC: > 64 µg/mL
M. tb H37Rv
  MIC: 0.457 µg/mL (≈ 1.11 µM)

## Cc1c(C(=O)NC2CC[Si](C)(C)CC2)[nH]c2sc(C(C)C)nc12 [MPL-312, N-(1,1-dimethylsilinan-4-yl)-2-isopropyl-6-methyl-4H-pyrrolo[3,2-d]thiazole-5-carboxamide]
M. ab_ATCC
  MIC: > 64 µg/mL
M. tb H37Rv
  MIC: 0.498 µg/mL (≈ 1.42 µM)

## COc1nc2cc(C(=O)NC3CC[Si](C)(C)CC3)[nH]c2s1 [MPL-313, N-(1,1-dimethylsilinan-4-yl)-2-methoxy-4H-pyrrolo[3,2-d]thiazole-5-carboxamide]
M. ab_ATCC
  MIC: > 64 µg/mL
M. tb H37Rv
  MIC: 0.254 µg/mL (≈ 0.785 µM)

## O=C(NC1CC[Si]2(CCCC2)CC1)c1cc2sc(-c3ccccc3)nc2[nH]1 [MPL-358, 2-phenyl-N-(5-silaspiro[4.5]decan-8-yl)-4H-pyrrolo[2,3-d]thiazole-5-carboxamide]
M. ab_ATCC
  MIC: > 64 µg/mL
M. tb H37Rv
  MIC: 0.033 µg/mL (≈ 0.0834 µM)

## O=C(NC1CC[Si]2(CCCCC2)CC1)c1cc2sc(-c3ccccc3)nc2[nH]1 [MPL-359, 2-phenyl-N-(6-silaspiro[5.5]undecan-3-yl)-4H-pyrrolo[2,3-d]thiazole-5-carboxamide]
M. ab_ATCC
  MIC: > 64 µg/mL
M. tb H37Rv
  MIC: 0.014 µg/mL (≈ 0.0342 µM)

## C[Si]1(C)CCCC(NC(=O)c2cc3sc(-c4ccccn4)nc3[nH]2)CC1 (stereo not drawn) [MPL-364, N-(1,1-dimethylsilepan-4-yl)-2-(2-pyridyl)-4H-pyrrolo[2,3-d]thiazole-5-carboxamide]
M. ab_ATCC
  MIC: > 64 µg/mL
M. tb H37Rv
  MIC: 0.423 µg/mL (≈ 1.1 µM)

## C[Si]1(C)CCCC(NC(=O)c2cc3sc(-c4cccnc4)nc3[nH]2)CC1 (stereo not drawn) [MPL-365, N-(1,1-dimethylsilepan-4-yl)-2-(3-pyridyl)-4H-pyrrolo[2,3-d]thiazole-5-carboxamide]
M. ab_ATCC
  MIC: > 64 µg/mL
M. tb H37Rv
  MIC: 0.125 µg/mL (≈ 0.325 µM)

## C[Si]1(C)CCCC(NC(=O)c2cc3sc(-c4ccccc4)nc3[nH]2)CCC1 [MPL-369, N-(1,1-dimethylsilocan-5-yl)-2-phenyl-4H-pyrrolo[2,3-d]thiazole-5-carboxamide]
M. ab_ATCC
  MIC: > 64 µg/mL
M. tb H37Rv
  MIC: 0.031 µg/mL (≈ 0.078 µM)

## C[Si]1(C)CCC(NC(=O)c2cc3sc(-c4ccncc4)nc3[nH]2)CC1 [MPL-370, N-(1,1-dimethylsilinan-4-yl)-2-(4-pyridyl)-4H-pyrrolo[2,3-d]thiazole-5-carboxamide]
M. ab_ATCC
  MIC: > 64 µg/mL
M. tb H37Rv
  MIC: 0.574 µg/mL (≈ 1.55 µM)

## Cc1ccccc1-c1nc2[nH]c(C(=O)NC3CC[Si](C)(C)CC3)cc2s1 [MPL-371, N-(1,1-dimethylsilinan-4-yl)-2-(o-tolyl)-4H-pyrrolo[2,3-d]thiazole-5-carboxamide]
M. ab_ATCC
  MIC: > 64 µg/mL
M. tb H37Rv
  MIC: 0.041 µg/mL (≈ 0.107 µM)

## COc1ccccc1-c1nc2[nH]c(C(=O)NC3CC[Si](C)(C)CC3)cc2s1 [MPL-372, N-(1,1-dimethylsilinan-4-yl)-2-(2-methoxyphenyl)-4H-pyrrolo[2,3-d]thiazole-5-carboxamide]
M. ab_ATCC
  MIC: > 64 µg/mL
M. tb H37Rv
  MIC: 0.138 µg/mL (≈ 0.345 µM)
